The subject of one data set is HIV-1 BaL. The experiment in a line: anti-HIV bioassay: HIV-1 p24 production in infected PHA-activated PBMCs (ELISA, day 7). The class given is cell-based. As to conditions: PBMCs infected with HIV-1 BaL; result in words. As for the experimental part: Stocks of crude drug made from G. officinale L. were prepared in Dimethyl sulfoxide (DMSO) in a stock solution of 10 mg/ml. Dilutions from the stock were made and the final concentration of DMSO in the cultures was always <0.1% to avoid cell toxicity. Peripheral blood mononuclear cells (PBMCs) were separated from buffy coats of HIV-1 seronegative donors (New York Blood Center, NY) by density centrifugation over Ficoll-Hypaque (Sigma). Briefly, the buffy coat suspension was diluted 1:2 with phosphate-buffered saline solution (PBS). Then, 35 ml were layered onto 15 ml of Ficoll® Paque PLUS (GE Healthcare), a ready to use sterile medium for isolation of lymphocytes and were centrifuged by standard ficoll-paque gradient centrifugation according to manufacturer's protocol (GE Healthcare) for 25 min at 400×g. The white interphase containing the PBMCs was collected and washed three times with PBS. […] On day 7, HIV-1 p24 protein production in the culture supernatant was measured using a commercial ELISA kit (Coulter, Hialeah, Fla.) and cell viability using a colorimetric MTT kit (Roche). […] The quantity of formazan produced (absorbance at 490 nm) is directly proportional to the number of living cells. […] MTT conversion to formazan by mitochondrial dehydrogenase was assayed by optical density at 490 nm measured in an ELISA plate reader. […]
On the technique in general: In an ELISA, binding on a coated surface is turned into a signal by an enzyme label.

The subject of the next data set is 3 cancer cell lines. The experiment in a line: cell proliferation assay against cancer cell lines. The class given is cell-based. As to conditions: result in words.
The next data set relates to Pseudomonas pseudomaliae. The conditions noted are these: result in words; cited from earlier work.
The next data set relates to brine shrimp. As to conditions: result in words; cited from earlier work.

For `CC1(C)CC[C@]2(C(=O)O)CC[C@]3(C)C(=CC[C@@H]4[C@@]5(C)CC[C@H](O[C@@H]6OC[C@@H](O)[C@H](OC7O[C@H](CO)[C@H](O)[C@H](O)[C@H]7O)[C@H]6O)C(C)(C)[C@@H]5CC[C@]43C)[C@@H]2C1` (stereo partly shown) [HL-038], the Anti-HIV-1 activity entry with HIV-1 BaL is “moderate activity”. The “activity against 3 cancer cell lines” value in the data set with 3 cancer cell lines is recorded as “moderate activity”.

As to guaianin N, the “antibacterial activity against Pseudomonas pseudomaliae” value in the data set with Pseudomonas pseudomaliae is listed as “antibacterial activity”. Also, the brine shrimp toxicity entry in the data set with brine shrimp is recorded as “toxicity”.

(Values after patent US9814747B2, “Methods for inhibiting HIV-1 activity by inhibitory mechanisms of extracts of Guaiacum officinale L. (Zygophyllaceae)” (priority 2014, dated 2017).)
